Measured values taken from the NIST ThermoML archive (doi:10.1016/j.tca.2013.06.017).

Assays:
[1] = refractive index (Na D-line) (dimensionless); wn = mass fraction of the nth substance listed; settings: 298.15 K, 101 kPa, Liquid, Standard Abbe refractometry
[2] = wn = mass fraction of the nth substance listed; settings: 298.15 K, 101 kPa, Liquid; for viscosity: Capillary tube (Ostwald / Ubbelohde) method; for speed of sound: Sing-around technique in a fixed-path interferometer; for mass density: Vibrating tube method

O=[N+]([O-])[O-].O=[N+]([O-])[O-].[Ba+2] [barium dinitrate] + O
Settings | mass density, [2] [kg/m3] | refractive index, [1] | speed of sound, [2] [m/s] | viscosity, [2] [mPa·s]
w1 = 0.01 | 997.37 | 1.3327 | 1512.7 | 0.904
w1 = 0.03 | 998.48 | 1.3334 | 1516.4 | 0.91
w1 = 0.05 | 999.56 | 1.3342 | 1519.3 | 0.916
